Literature values, collected in US20200253945A1, “DELAYED RELEASE DEFERIPRONE TABLETS AND METHODS OF USING THE SAME” (Chiesi Farmaceutici S.p.A., priority 2017, published 2020).

How the values were obtained:
[1] = in vivo
[2] = patients who begin therapy with deferiprone

elimination half-life [1]: about 2 hours
patients with gastric distress [2]: 15-30%
SMILES: Cc1c(O)c(=O)ccn1C [deferiprone, Deferiprone]
